Results published in publication PMC8897147 (Acta Pharmaceutica Sinica. B, 2021).
Entries after “also recorded” stand apart in the source; their conditions may differ. Read-outs that look alike come from different tables or passages of the source.

What was measured:
[1] = target: T1, SV1 (Homo sapiens, UniProt Q02643); experiment: cAMP accumulation; settings: COS-7, COS-7, % of max, receptor only, mean ± SEM n≥3
T1 sequence (Q02643 90-423 limits assumed): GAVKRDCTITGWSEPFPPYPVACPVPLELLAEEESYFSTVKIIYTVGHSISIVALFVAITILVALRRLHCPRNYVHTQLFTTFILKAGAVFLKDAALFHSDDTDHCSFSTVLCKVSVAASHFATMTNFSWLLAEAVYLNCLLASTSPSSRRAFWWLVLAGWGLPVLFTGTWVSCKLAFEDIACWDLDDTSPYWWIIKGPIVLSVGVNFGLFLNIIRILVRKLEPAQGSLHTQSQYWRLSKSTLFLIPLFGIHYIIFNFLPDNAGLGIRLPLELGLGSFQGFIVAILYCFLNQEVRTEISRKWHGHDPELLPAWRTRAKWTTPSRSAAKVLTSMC

[2] = target: T2, GHRHR (Homo sapiens, UniProt Q02643); experiment: β-Arrestin1 recruitment; settings: COS-7, COS-7, % of max, receptor only, mean ± SEM n≥3
T2 sequence (Q02643 23-423): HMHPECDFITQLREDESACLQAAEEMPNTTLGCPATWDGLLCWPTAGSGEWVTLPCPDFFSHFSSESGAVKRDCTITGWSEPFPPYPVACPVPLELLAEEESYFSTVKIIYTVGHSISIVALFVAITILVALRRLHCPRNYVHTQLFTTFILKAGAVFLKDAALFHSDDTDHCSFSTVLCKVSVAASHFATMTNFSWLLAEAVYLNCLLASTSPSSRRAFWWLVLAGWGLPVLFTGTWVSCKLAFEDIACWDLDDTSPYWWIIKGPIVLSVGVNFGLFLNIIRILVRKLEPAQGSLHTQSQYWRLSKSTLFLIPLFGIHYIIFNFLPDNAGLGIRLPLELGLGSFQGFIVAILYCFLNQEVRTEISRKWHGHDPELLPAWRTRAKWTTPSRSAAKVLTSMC

[3] = target: T1, SV1; experiment: Gαq activation; settings: HEK293A; no RAMP; data not shown
[4] = target: T2, GHRHR; experiment: cAMP accumulation; settings: COS-7, COS-7, % of max, receptor only, mean ± SEM n≥3
[5] = target: T2, GHRHR; experiment: Gαq activation; settings: HEK293-A, HEK293A, % of max, receptor only, mean ± SEM n≥3
[6] = target: T1, SV1; experiment: β-Arrestin1 recruitment; settings: COS-7, COS-7, % of max, receptor only, mean ± SEM n≥3
[7] = test system: β2-AR; experiment: Gαq activation; settings: HEK293A, mean ± SEM n≥3
[8] = test system: β2-AR; experiment: cAMP accumulation; settings: COS-7, mean ± SEM n≥3
[9] = test system: β2-AR; experiment: β-Arrestin2 recruitment; settings: COS-7, mean ± SEM n≥3; for Emax: % of max, receptor only
[10] = test system: β2-AR; experiment: β-Arrestin1 recruitment; settings: COS-7, mean ± SEM n≥3; for Emax: % of max, receptor only
[11] = target: T3, GIPR (Homo sapiens, UniProt P48546); experiment: BRET GPCR–RAMP interaction; type: binding; settings: COS-7; receptor-Rluc8:RAMP-Ypet 1:0.25 to 1:16; pH 7.4, 37 °C; mean ± SEM n≥3
T3 sequence (P48546 22-466): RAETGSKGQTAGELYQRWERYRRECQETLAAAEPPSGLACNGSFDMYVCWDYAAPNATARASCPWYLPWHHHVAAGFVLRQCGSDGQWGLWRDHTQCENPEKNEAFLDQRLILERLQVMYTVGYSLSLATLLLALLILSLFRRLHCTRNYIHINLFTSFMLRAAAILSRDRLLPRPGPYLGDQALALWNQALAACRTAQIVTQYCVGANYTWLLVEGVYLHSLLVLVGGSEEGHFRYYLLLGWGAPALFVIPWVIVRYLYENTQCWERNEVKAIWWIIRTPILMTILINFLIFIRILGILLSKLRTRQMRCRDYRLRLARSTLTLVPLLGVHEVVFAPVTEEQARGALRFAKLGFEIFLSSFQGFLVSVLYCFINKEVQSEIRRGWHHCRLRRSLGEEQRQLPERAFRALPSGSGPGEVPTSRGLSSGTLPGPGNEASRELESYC

[12] = target: T2, GHRHR; settings: HEK293T cells ref [11]; cited from earlier work
[13] = target: CLR (Homo sapiens, UniProt Q16602); experiment: BRET GPCR–RAMP interaction; type: binding; settings: COS-7; receptor-Rluc8:RAMP-Ypet 1:0.25 to 1:16; pH 7.4, 37 °C; mean ± SEM n≥3
Chain of CLR (Q16602 23-461): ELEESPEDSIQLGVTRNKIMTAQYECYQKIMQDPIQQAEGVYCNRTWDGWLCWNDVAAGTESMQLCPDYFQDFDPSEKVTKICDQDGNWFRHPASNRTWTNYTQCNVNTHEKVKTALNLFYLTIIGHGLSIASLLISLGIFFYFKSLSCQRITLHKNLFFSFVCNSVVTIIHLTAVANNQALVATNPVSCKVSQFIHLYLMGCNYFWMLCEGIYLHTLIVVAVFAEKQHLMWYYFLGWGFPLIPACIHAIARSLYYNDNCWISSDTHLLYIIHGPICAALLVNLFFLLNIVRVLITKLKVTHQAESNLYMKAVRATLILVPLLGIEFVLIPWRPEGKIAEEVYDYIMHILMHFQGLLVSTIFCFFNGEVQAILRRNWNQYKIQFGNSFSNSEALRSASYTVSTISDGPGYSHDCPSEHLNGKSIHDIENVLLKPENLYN

[14] = target: T1, SV1; experiment: BRET GPCR–RAMP interaction; type: binding; settings: COS-7; receptor-Rluc8:RAMP-Ypet 1:0.25 to 1:16; pH 7.4, 37 °C; mean ± SEM n≥3
[15] = test system: SCTR; experiment: BRET GPCR–RAMP interaction; type: binding; settings: COS-7; receptor-Rluc8:RAMP-Ypet 1:0.25 to 1:16; pH 7.4, 37 °C; mean ± SEM n≥3
[16] = test system: COS-7 cells; experiment: RAMP cell surface expression; type: cell-based; settings: co-expression with SCTR, FLAG-RAMP
[17] = target: T4, GLP-2R (Homo sapiens, UniProt O95838); experiment: BRET GPCR–RAMP interaction; type: binding; settings: COS-7
T4 sequence (O95838 1-553): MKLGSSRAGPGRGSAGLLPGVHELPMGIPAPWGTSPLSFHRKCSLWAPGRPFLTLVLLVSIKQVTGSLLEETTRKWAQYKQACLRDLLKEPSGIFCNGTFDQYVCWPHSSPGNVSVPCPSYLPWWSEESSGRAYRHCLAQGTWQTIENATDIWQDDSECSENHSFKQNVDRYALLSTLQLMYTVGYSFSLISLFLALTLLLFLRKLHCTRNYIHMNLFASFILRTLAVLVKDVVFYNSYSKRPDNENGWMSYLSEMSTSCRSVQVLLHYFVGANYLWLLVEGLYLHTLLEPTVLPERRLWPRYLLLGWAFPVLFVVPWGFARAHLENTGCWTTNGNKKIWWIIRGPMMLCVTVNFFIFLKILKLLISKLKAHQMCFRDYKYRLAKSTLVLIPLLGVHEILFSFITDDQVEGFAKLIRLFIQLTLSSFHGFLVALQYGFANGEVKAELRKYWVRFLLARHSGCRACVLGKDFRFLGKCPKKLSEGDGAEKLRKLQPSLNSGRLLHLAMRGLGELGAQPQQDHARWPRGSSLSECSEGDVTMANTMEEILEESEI

[18] = target: GLP-1R (Homo sapiens, UniProt P43220); experiment: BRET GPCR–RAMP interaction; type: binding; settings: COS-7; receptor-Rluc8:RAMP-Ypet 1:0.25 to 1:16; pH 7.4, 37 °C; mean ± SEM n≥3
Chain of GLP-1R (P43220 24-463): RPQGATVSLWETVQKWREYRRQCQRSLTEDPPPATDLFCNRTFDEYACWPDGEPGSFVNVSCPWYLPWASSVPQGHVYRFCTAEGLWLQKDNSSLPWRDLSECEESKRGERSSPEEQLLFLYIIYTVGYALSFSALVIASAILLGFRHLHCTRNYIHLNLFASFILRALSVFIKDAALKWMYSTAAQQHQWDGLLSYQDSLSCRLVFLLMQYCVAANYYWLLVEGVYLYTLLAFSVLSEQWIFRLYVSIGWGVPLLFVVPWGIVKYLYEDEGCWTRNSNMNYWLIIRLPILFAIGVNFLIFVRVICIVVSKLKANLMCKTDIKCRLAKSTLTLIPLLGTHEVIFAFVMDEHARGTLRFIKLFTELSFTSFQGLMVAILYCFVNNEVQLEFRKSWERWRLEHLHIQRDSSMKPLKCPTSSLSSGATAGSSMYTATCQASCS

[19] = target: GCGR (Homo sapiens, UniProt P47871); experiment: BRET GPCR–RAMP interaction; type: binding; settings: COS-7; receptor-Rluc8:RAMP-Ypet 1:0.25 to 1:16; pH 7.4, 37 °C; mean ± SEM n≥3
Chain of GCGR (P47871 26-477, species assumed): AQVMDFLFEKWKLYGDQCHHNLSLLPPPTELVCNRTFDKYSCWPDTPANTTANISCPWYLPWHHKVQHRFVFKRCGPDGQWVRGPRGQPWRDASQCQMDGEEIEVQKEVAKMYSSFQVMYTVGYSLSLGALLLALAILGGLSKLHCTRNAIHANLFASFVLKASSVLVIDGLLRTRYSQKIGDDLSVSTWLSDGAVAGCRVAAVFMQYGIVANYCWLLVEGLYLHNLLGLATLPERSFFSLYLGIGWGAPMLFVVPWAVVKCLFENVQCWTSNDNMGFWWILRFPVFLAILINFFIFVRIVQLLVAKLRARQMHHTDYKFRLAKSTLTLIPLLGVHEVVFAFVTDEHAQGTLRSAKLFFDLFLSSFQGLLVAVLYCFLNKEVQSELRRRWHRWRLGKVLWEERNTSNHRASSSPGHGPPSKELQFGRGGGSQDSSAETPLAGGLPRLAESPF

[20] = target: T2, GHRHR; experiment: BRET GPCR–RAMP interaction; type: binding; settings: COS-7
[21] = test system: SCTR; experiment: Gαq activation; settings: HEK293A, % of max, receptor only, mean ± SEM n≥3
[22] = test system: SCTR; experiment: cAMP accumulation; settings: COS-7; vector (no RAMP); % of max, receptor only; mean ± SEM n≥3
[23] = test system: SCTR; experiment: β-Arrestin2 recruitment; settings: COS-7, % of max, receptor only, mean ± SEM n≥3
[24] = test system: SCTR; experiment: β-Arrestin1 recruitment; settings: COS-7, % of max, receptor only, mean ± SEM n≥3
[25] = receptor-Rluc8:RAMP-Ypet 1:0.25 to 1:16, pH 7.4, 37 °C, mean ± SEM n≥3

CC[C@H](C)[C@H](NC(=O)[C@H](C)NC(=O)[C@H](CC(=O)O)NC(=O)[C@H](C)NC(=O)[C@@H](N)Cc1ccc(O)cc1)C(=O)N[C@@H](Cc1ccccc1)C(=O)N[C@H](C(=O)N[C@@H](CC(N)=O)C(=O)N[C@@H](CO)C(=O)N[C@@H](Cc1ccc(O)cc1)C(=O)N[C@@H](CCCNC(=N)N)C(=O)N[C@@H](CCCCN)C(=O)N[C@H](C(=O)N[C@@H](CC(C)C)C(=O)NCC(=O)N[C@@H](CCC(N)=O)C(=O)N[C@@H](CC(C)C)C(=O)N[C@@H](CO)C(=O)N[C@@H](C)C(=O)N[C@@H](CCCNC(=N)N)C(=O)N[C@@H](CCCCN)C(=O)N[C@@H](CC(C)C)C(=O)N[C@@H](CC(C)C)C(=O)N[C@@H](CCC(N)=O)C(=O)N[C@@H](CC(=O)O)C(=O)N[C@H](C(=O)N[C@@H](CCSC)C(=O)N[C@@H](CO)C(=O)N[C@@H](CCCNC(=N)N)C(=O)N[C@@H](CCC(N)=O)C(=O)N[C@@H](CCC(N)=O)C(=O)NCC(=O)N[C@@H](CCC(=O)O)C(=O)N[C@@H](CO)C(=O)N[C@@H](CC(N)=O)C(=O)N[C@@H](CCC(N)=O)C(=O)N[C@@H](CCC(=O)O)C(=O)N[C@@H](CCCNC(=N)N)C(=O)NCC(=O)N[C@@H](C)C(=O)N[C@@H](CCCNC(=N)N)C(=O)N[C@@H](C)C(=O)N[C@@H](CCCNC(=N)N)C(=O)N[C@@H](CC(C)C)C(N)=O)[C@@H](C)CC)C(C)C)[C@@H](C)O [GHRH, growth hormone-releasing hormone]
Emax ([1]; RAMP1): 100 ± 3.4%
Emax ([1]; RAMP2): 102 ± 4.2%
Emax ([1]; RAMP3): 100 ± 2%
Emax ([1]; vector (no RAMP)): 100 ± 1.8%
Emax ([2]; RAMP1): 124 ± 42.2%
Emax ([2]; RAMP2): 124 ± 34%
Emax ([2]; RAMP3): 102 ± 45.7%
Emax ([2]; vector (no RAMP)): 100 ± 25.3%
Gαq response, receptor alone [3]: did not affect Gαq response
Emax ([4]; RAMP1): 104 ± 1.2%
Emax ([4]; RAMP2): 102 ± 1.4%
Emax ([4]; RAMP3): 100 ± 1.5%
Emax ([5]; RAMP1): 91.8 ± 8.3%
Emax ([5]; RAMP3): 87.9 ± 8%
Emax ([5]; vector (no RAMP)): 100 ± 6.9%
Emax ([6]; RAMP1): 188 ± 36.8%
Emax ([6]; RAMP2): 182 ± 44.2%
Emax ([6]; RAMP3): 168 ± 49.1%
Emax ([6]; vector (no RAMP)): 100 ± 11.2%

(−)-Adrenaline
pEC50 ([7]; RAMP1): 6.5 ± 0.2
pEC50 ([7]; RAMP2): 6.3 ± 0.4
pEC50 ([7]; RAMP3): 6.9 ± 0.3
pEC50 ([7]; vector (no RAMP)): 6.9 ± 0.2
pEC50 ([8]; RAMP1): 9.6 ± 0.1
pEC50 ([8]; RAMP2): 9.7 ± 0
pEC50 ([8]; RAMP3): 9.7 ± 0.1
pEC50 ([8]; vector (no RAMP)): 9.6 ± 0
Emax ([9]; RAMP1): 79.1 ± 5.7%
pEC50 ([9]; RAMP1): 6.7 ± 0.2
Emax ([9]; RAMP2): 90 ± 5.4%
pEC50 ([9]; RAMP2): 6.5 ± 0.2
Emax ([9]; RAMP3): 79.2 ± 6.1%
pEC50 ([9]; RAMP3): 6.4 ± 0.2
pEC50 ([9]; vector (no RAMP)): 6.4 ± 0.1
Emax ([10]; RAMP1): 77.3 ± 11.1%
pEC50 ([10]; RAMP1): 6 ± 0.4
Emax ([10]; RAMP2): 83.4 ± 15%
pEC50 ([10]; RAMP2): 5.8 ± 0.5
pEC50 ([10]; RAMP3): 6 ± 0.4
pEC50 ([10]; vector (no RAMP)): 6.2 ± 0.3

receptor activity-modulating protein 1 [RAMP1]
Bmax (maximum measured BRET value) [11]: 1.316 ± 0.203
interaction in words [12]: insignificant
Bmax (maximum measured BRET value) [13]: 0.460 ± 0.017
Bmax (maximum measured BRET value) [14]: 1.364 ± 0.244
Bmax (maximum measured BRET value) [15]: 0.573 ± 0.021
RAMP cell surface expression [16]: promoted cell surface translocation
interaction in words ([17]; BRET): poor interaction; also recorded: rather weak
Bmax (maximum measured BRET value) [17, 25]: Linear fit
Bmax (maximum measured BRET value) [18]: 2.039 ± 1.234
Bmax (maximum measured BRET value) [19]: 1.149 ± 0.109
interaction in words ([20]; BRET): readily observed
Bmax (maximum measured BRET value) [20, 25]: 1.122 ± 0.193

secretin
Emax ([21]; RAMP1): 127.7 ± 13.5%
Emax ([21]; RAMP3): 97.8 ± 21.1%
Emax ([21]; vector (no RAMP)): 100 ± 14.1%
Emax [22]: 100 ± 1%
Emax ([23]; RAMP1): 81 ± 6.2%
Emax ([23]; RAMP3): 67 ± 4.2∗∗ %
Emax ([23]; vector (no RAMP)): 100 ± 4%
Emax ([24]; RAMP1): 91.8 ± 3.6%
Emax ([24]; RAMP3): 69.1 ± 4.9∗∗ %
Emax ([24]; vector (no RAMP)): 100 ± 5.6%
